Here are results for one compound from paper PMC7221793, “Metabolism and Pharmacokinetics of SP-8356, a Novel (1S)-(−)-Verbenone Derivative, in Rats and Dogs and Its Implications in Humans” (Molecules, 2020).

The data set in a line: Metabolic stability in dog liver S9 fraction. Type of data set: in vitro ADME. On the procedure:
The metabolic stability of SP-8356 was investigated using rat, dog and human liver S9 fractions fortified with cofactors for major drug metabolism. The final reaction mixture contained 1 mg/mL rat, dog or human liver S9 fraction, 1 mM cofactors (NADPH, UDPGA, PAPS, SAM and GSH), 2 mM MgCl2, 25 µg/mL alamethicin and 1 µM SP-8356 in final volume of 200 µL. The metabolic reactions were initiated by adding 10 mM cofactor solution to reaction mixtures preincubated for 5 min at 37 °C. The reactions were terminated at (0, 5, 15, 30 and 60) min by the addition of 200 µL ice-cold acetonitrile containing HSDH (1 µg/mL). The subsequent sample preparation and analytical methods were the same as those described in Section 4.5.
The degradation t1/2 of SP-8356 was calculated using the following Equation:(1) t1/2=0.693/k, where, k was the first-order rate constant calculated by one phase decay nonlinear regression using GraphPad Prism™ 7 (GraphPad Software, La Jolla, CA, USA). CLint was calculated using the following Equation:(2) CLint=k/fu,S9· mL incubation/mg liver S9· mg S9/g liver·g liver/kg body wt.
The scaling factors were (136, 120.7 and 120.7) mg S9 protein/g liver and (40, 32 and 26) g liver/kg body weight for rats, dogs and humans, respectively. For simplicity, the fraction unbound in S9 incubation (fu, S9) was assumed to be one. CLH was predicted using the hepatic well-stirred model, as follows:(3) CLH=QH·fu·CLint/QH+fu·CLint, where, QH was the hepatic blood flow of (55, 30 and 20) mL/min/kg for rats, dogs and humans, respectively. The fraction unbound (fu) was assumed to be one. EH was calculated using the following Equation:(4) EH=CLH/QH.

On to `COc1cc(/C=C/C2=CC(=O)[C@H]3C[C@@H]2C3(C)C)cc(O)c1O` [SP-8356, (1S,5R)-4-((E)-3,4-dihydroxy-5-methoxystryryl)-6,6-dimethylbicylco[3.1.1]hept-3-en-2-one], for which the half-life at 1 µM (Beagle, dog, liver S9 fraction, dog liver S9, −Cofactors, 1 μM) was below 30 min. This compound gave a CLint scaled at 1 µM (Beagle, liver S9 fraction, dog liver S9, +Cofactors) of 2430 mL/min/kg. This compound also had a t1/2 (dog liver S9, −Cofactors, 1 μM) of 20.7 min. For the same compound, the CLH (dog, +Cofactors, predicted by well-stirred model) is given as 29.6 mL/min/kg.
